Experimental findings from ChEMBL document CHEMBL1201862, “PubChem BioAssay data set” (2004) are described below.

Some test systems named below: 786-0; A498; A549; ACHN; BT-549; CAKI-1; COLO 205; DU-145; HCT-116; HL-60; IGROV-1; K562; MCF7; MDA-MB-435; MOLT-4; NCI-H460; NCI-H522; OVCAR-5; SK-OV-3; U-251.
Assay in all cases: NCI anticancer screen, dose series, 48 h

Molecules are shown by their SMILES.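 Step 1: Grow cells in 96-well plates. Step 2: Expose to compound for 48 hours at 5 concentrations. Step 3: Interpolate endpoints linearly; if unreached, use highest concentration. The concentration for 50% growth inhibition is given as GI50.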 Active and inactive are the calls of the source. Cut-off read from the data, not from the text of the source: active = GI50 up to about 1.1 µM and inactive = higher.

Consider `COC(=O)c1sc2c(c1C(=O)OC)/C(=N/C(C)(C)C)S/C2=N\C(C)(C)C`, for which the GI50 in the experiment on 786-0 is 15 µM (inactive); with A498 it was 17.8 µM (inactive); in the experiment with A549 it was 17.4 µM (inactive); in the experiment on ACHN, 18.7 µM (inactive); in the experiment on BT-549, 19 µM (inactive); in the experiment with CAKI-1 it was 17.2 µM (inactive). The GI50 with COLO 205 is 17.4 µM (inactive); in the experiment on DU-145, 15.5 µM (inactive); in the experiment with HCT-116 it was 15.6 µM (inactive); in the experiment with HL-60 it was 13.6 µM (inactive); with IGROV-1, 19.6 µM (inactive); in the experiment with K562 it was 18.5 µM (inactive). Besides, the GI50 in the experiment with MCF7 is 17.7 µM (inactive); in the experiment with MDA-MB-435, 18.4 µM (inactive); in the experiment on MOLT-4, 15.1 µM (inactive); in the experiment with NCI-H460, 18.5 µM (inactive); in the experiment with NCI-H522, 18.5 µM (inactive); with OVCAR-5, 20.6 µM (inactive). Moreover, the results for the GI50 in the experiment with SK-OV-3 and with U-251 were 25.4 µM (inactive) and 17.1 µM (inactive), respectively.
As to `Clc1ccccc1-c1nc2cc(C34CC5CC(CC(C5)C3)C4)ccc2[nH]1`, the GI50 with 786-0 is 12.1 µM (inactive); with A498 it was 25 µM (inactive); in the experiment on A549, 11.4 µM (inactive); in the experiment with ACHN it was 11.6 µM (inactive); in the experiment with BT-549, 20 µM (inactive); in the experiment on CAKI-1, 31.4 µM (inactive). Moreover, the GI50 in the experiment on COLO 205 is 34 µM (inactive); in the experiment on DU-145, 23.2 µM (inactive); in the experiment on HCT-116 it was 55.1 µM (inactive); in the experiment on HL-60, 23.7 µM (inactive); in the experiment with IGROV-1, 17.3 µM (inactive); with K562, 27.5 µM (inactive). The GI50 was 11.2 µM (inactive) in the experiment on MCF7; > 100 µM (inactive) in the experiment with MDA-MB-435; 79.8 µM (inactive) in the experiment on MOLT-4; 30.3 µM (inactive) in the experiment on NCI-H460; 17 µM (inactive) with NCI-H522; 17.8 µM (inactive) with OVCAR-5. In addition, the GI50 in the experiment on SK-OV-3 was 16.1 µM (inactive); with U-251, 7.98 µM (inactive).
As to `CN(C)CCNC(=O)c1ccc(NCCCN(C)CCCNc2ccc(C(=O)NCCN(C)C)c3nc4ccc([N+](=O)[O-])cc4c(O)c23)c2c(O)c3cc([N+](=O)[O-])ccc3nc12`, the GI50 in the experiment with 786-0 is < 0.0197 µM (active); with A498, 0.116 µM (active); in the experiment with A549, < 0.01 µM (active); in the experiment with ACHN it was < 0.0121 µM (active); with BT-549, 0.447 µM (active); with CAKI-1, 0.757 µM (active). The GI50 in the experiment with COLO 205 was < 0.0133 µM (active); in the experiment with DU-145, < 0.0272 µM (active); with HCT-116, < 0.01 µM (active); with HL-60 it was 0.0277 µM (active); with IGROV-1, < 0.01 µM (active); in the experiment on K562, 0.0135 µM (active). Also, the GI50 is < 0.01 µM (active) in the experiment with MCF7; 0.0861 µM (active) with MDA-MB-435; < 0.01 µM (active) with MOLT-4; < 0.01 µM (active) with NCI-H460; < 0.01 µM (active) in the experiment with NCI-H522; 0.158 µM (active) in the experiment with OVCAR-5. Moreover, the GI50 is 0.232 µM (active) in the experiment on SK-OV-3 and < 0.01 µM (active) with U-251.
Consider `CC(NC(=O)/C(=C/c1ccccc1O)NC(=O)c1ccccc1)C(=O)O` (stereo not given), for which the GI50 in the experiment with 786-0 was 24.9 µM (inactive); in the experiment on A498, > 100 µM (inactive); with A549 it was 43.1 µM (inactive); with ACHN, 19.1 µM (inactive); in the experiment with BT-549 it was 18.9 µM (inactive); with CAKI-1, 19 µM (inactive). In addition, the GI50 in the experiment on COLO 205 is > 100 µM (inactive); in the experiment with DU-145, 45.6 µM (inactive); in the experiment on HCT-116, 33.2 µM (inactive); in the experiment on HL-60 it was > 100 µM (inactive); with IGROV-1, 17.9 µM (inactive); with K562, > 100 µM (inactive). In addition, the GI50 with MCF7 was 5.85 µM (inactive); in the experiment with MDA-MB-435, 27.8 µM (inactive); with MOLT-4, > 100 µM (inactive); in the experiment with NCI-H460, 24.5 µM (inactive); with NCI-H522, 18.5 µM (inactive); in the experiment with OVCAR-5, > 100 µM (inactive). Moreover, the GI50 in the experiment on SK-OV-3 is 19.4 µM (inactive); in the experiment with U-251 it was 50.5 µM (inactive).
Turning to `CCCCC1Cc2cc(OC)ccc2-c2n1c1cc(OC)ccc1[n+]2C.CCCCC1Cc2cc(OC)ccc2-c2n1c1ccc(OC)cc1[n+]2C` (stereo not given), the GI50 was 7.13 µM (inactive) in the experiment on 786-0; 16.9 µM (inactive) in the experiment with A498; 1.48 µM (inactive) with A549; 12.6 µM (inactive) with ACHN; 1.66 µM (inactive) with BT-549; 35.8 µM (inactive) with CAKI-1. The GI50 is 0.401 µM (active) with COLO 205; 5.32 µM (inactive) with DU-145; 3.22 µM (inactive) with HCT-116; 0.261 µM (active) with HL-60; 1.6 µM (inactive) in the experiment on IGROV-1; 0.475 µM (active) with K562. Moreover, the GI50 in the experiment with MCF7 was 0.953 µM (active); in the experiment with MDA-MB-435, 0.944 µM (active); in the experiment with MOLT-4 it was 4.79 µM (inactive); in the experiment with NCI-H460, 3.65 µM (inactive); in the experiment on NCI-H522 it was 0.681 µM (active); with OVCAR-5, 9.77 µM (inactive). The GI50 in the experiment on SK-OV-3 is 10 µM (inactive); in the experiment with U-251, 0.332 µM (active).
With `Cc1c2c(C(N)=O)nccc2c(C)c2c1c1ccccc1n2Cc1ccccc1`, the GI50 with 786-0 is 3.86 µM (inactive); in the experiment with A498, 21 µM (inactive); in the experiment on A549 it was 14.8 µM (inactive); in the experiment on ACHN it was 16.3 µM (inactive); in the experiment with BT-549, 29.3 µM (inactive); with CAKI-1 it was 17.6 µM (inactive). Besides, the GI50 is > 10 µM (inactive) in the experiment on COLO 205; 27.7 µM (inactive) in the experiment on DU-145; 10 µM (inactive) in the experiment on HCT-116; 23.3 µM (inactive) with HL-60; 16.2 µM (inactive) in the experiment on IGROV-1; 22.7 µM (inactive) in the experiment on K562. Also, the GI50 is 37 µM (inactive) in the experiment with MCF7; 33.9 µM (inactive) with MDA-MB-435; 32.7 µM (inactive) in the experiment on MOLT-4; 11.6 µM (inactive) in the experiment on NCI-H460; 23.7 µM (inactive) in the experiment on NCI-H522; 28.6 µM (inactive) with OVCAR-5. Further, the figures for the GI50 with SK-OV-3 and in the experiment on U-251 were 22.9 µM (inactive) and 9.04 µM (inactive), respectively.
Turning to `CCCCCCc1cc2cc(C(=O)Nc3ccccc3F)c(=N)oc2cc1O`, the GI50 was 11.9 µM (inactive) in the experiment with 786-0; 14.4 µM (inactive) with A498; 6.97 µM (inactive) in the experiment with A549; 6.08 µM (inactive) with ACHN; 5.36 µM (inactive) in the experiment on BT-549; 6.32 µM (inactive) in the experiment with CAKI-1. In addition, the GI50 in the experiment with COLO 205 was 19.3 µM (inactive); in the experiment with DU-145 it was 9.31 µM (inactive); with HCT-116, 5.7 µM (inactive); with HL-60, 6.24 µM (inactive); in the experiment on IGROV-1 it was 3.34 µM (inactive); in the experiment with K562 it was 3.7 µM (inactive). The GI50 was 3.85 µM (inactive) with MCF7; 3.39 µM (inactive) in the experiment with MDA-MB-435; 3.21 µM (inactive) in the experiment on MOLT-4; 7.62 µM (inactive) in the experiment on NCI-H460; 2.69 µM (inactive) in the experiment on NCI-H522; 21.2 µM (inactive) in the experiment on OVCAR-5. For the same compound, the GI50 was 12.5 µM (inactive) in the experiment on SK-OV-3 and 4.81 µM (inactive) in the experiment on U-251.
As to `COc1cc(/C=C/C(=N\NC(=S)NN)c2sc(NNC(C)=O)nc2C)ccc1O`, the GI50 in the experiment with 786-0, with A498, in the experiment with A549, in the experiment with ACHN, in the experiment with BT-549 and with CAKI-1 was > 100 µM (inactive) in each case. The GI50 with COLO 205, in the experiment with DU-145, in the experiment on HCT-116, in the experiment on HL-60, in the experiment on IGROV-1 and in the experiment on K562 was > 100 µM (inactive) in each case. Moreover, the GI50 in the experiment with MCF7, with MDA-MB-435, with MOLT-4, in the experiment with NCI-H460, with NCI-H522 and in the experiment with OVCAR-5 was > 100 µM (inactive) in each case. Further, the GI50 in the experiment with SK-OV-3 and in the experiment on U-251 was > 100 µM (inactive) throughout.
As to `CC1=C(O)C(=O)C=C2C1=CC=C1[C@@]2(C)CC[C@@]2(C)[C@@H]3C[C@](C)(C(=O)O)CC[C@]3(C)CC[C@]12C` [CELASTROL], the GI50 was 0.0147 µM (active) in the experiment with 786-0; 0.0335 µM (active) in the experiment on A498; 0.422 µM (active) in the experiment with A549; 0.0169 µM (active) in the experiment on ACHN; 0.0124 µM (active) with BT-549; 0.0135 µM (active) in the experiment on CAKI-1. The GI50 in the experiment with COLO 205 was 0.0166 µM (active); in the experiment with DU-145 it was 0.0675 µM (active); with HCT-116 it was 0.0221 µM (active); with HL-60, 0.0173 µM (active); with IGROV-1 it was 0.0178 µM (active); in the experiment with K562, 0.0201 µM (active). For the same compound, the GI50 was 0.0818 µM (active) in the experiment with MCF7; 0.0351 µM (active) in the experiment with MDA-MB-435; 0.0124 µM (active) in the experiment on MOLT-4; 0.149 µM (active) in the experiment with NCI-H460; 0.0143 µM (active) in the experiment on NCI-H522; 0.18 µM (active) in the experiment on OVCAR-5. The values for the GI50 in the experiment on SK-OV-3 and with U-251 were 0.238 µM (active) and 0.0298 µM (active), respectively.
Take `CC1=C(C(=S)Nc2ccc(Cl)c(C(=O)OC(C)C)c2)SCCO1`: the GI50 in the experiment with 786-0 was 16 µM (inactive); with A498, 16.1 µM (inactive); in the experiment on A549, 31 µM (inactive); in the experiment on ACHN, 25.8 µM (inactive); with BT-549, 17.7 µM (inactive); in the experiment on CAKI-1 it was 24.2 µM (inactive). The GI50 with COLO 205 was 20 µM (inactive); in the experiment on DU-145 it was 20.3 µM (inactive); in the experiment with HCT-116, 15.3 µM (inactive); in the experiment on HL-60 it was 17.5 µM (inactive); with IGROV-1 it was 16.6 µM (inactive); in the experiment with K562, 17.1 µM (inactive). Besides, the GI50 in the experiment on MCF7 is 32.1 µM (inactive); in the experiment with MDA-MB-435, 19.3 µM (inactive); in the experiment with MOLT-4 it was 15.7 µM (inactive); with NCI-H460, 21.8 µM (inactive); in the experiment on NCI-H522, 21.4 µM (inactive); in the experiment with OVCAR-5 it was 34.6 µM (inactive). The values for the GI50 with SK-OV-3 and in the experiment on U-251 were 20.4 µM (inactive) and 17.6 µM (inactive), respectively.
